How the values were obtained:
[1] = system: intraperitoneal SKOV3 human ovarian adenocarcinoma; experiment: Survival of nude mice bearing intraperitoneal SKOV3 tumours; assay type: in vivo, Swiss/nude mice
Method: 4-week-old female Swiss/nude mice were obtained from CHARLES-RIVER LABORATORIES and maintained in a pathogen-free environment. The mice were fed a standard laboratory diet and tap water ad libitum and kept a 23±1° C. with a 12 h light/dark cycle. Animal experiments in the present study were performed in compliance with the guidelines of the Federation of european laboratory animal science associations.
6-8 weeks old mice were implanted intraperitoneally with 2×10^7 ovarian adenocarcinoma SKOV3 cells. As described previously, this model reflects the i.p growth pattern of advanced ovarian cancer (Louis et al, Cancer Gene Therapy, 2006, 13, 367-374).
Twenty one days after tumour implantation, mice were allocated to one of the eight treatment groups (10 mice per group) summarized in Table II: • Group 1 comprised untreated animals. • Group 2 received intraperitoneal injection of 4 μg/kg cisplatin in 1 ml 0.9% NaCl solution. • Group 3 received intraperitoneal injection of 25 μg/kg control siRNA in 1 ml 0.9% NaCl. • Group 4 received intraperitoneal injection of 25 μg/kg Bcl-XL siRNA in 1 ml 0.9% NaCl. • Group 5 received intraperitoneal injection of 25 μg/kg control siRNA in 1 ml 0.9% NaCl and the following day 4 μg/kg of cisplatin in 1 ml 0.9% NaCl solution. • Group 6 received intraperitoneal injection of 4 μg/kg of cisplatin in 1 ml 0.9% NaCl solution and the following day 25 μg/kg control siRNA in 1 ml 0.9% NaCl. • Group 7 received intraperitoneal injection of 25 μg/kg Bcl-XL siRNA in 1 ml 0.9% NaCl and the following day 4 μg/kg of cisplatin in 1 ml 0.9% NaCl solution. • Group 8 received intraperitoneal injection of 4 μg/kg of cisplatin in 1 ml 0.9% NaCl solution and the following day 25 μg/kg Bcl-XL siRNA in 1 ml 0.9% NaCl.
The same treatment was repeated one month later. Mice were killed and autopsied when considered as moribund. Organs and tumours were formalin-fixed and paraffin-embedded for histological examination. At the end of the experiment, all surviving animals were sacrificed, and histological examination was performed in order to detect residual tumour nodes.

Mcl-1 protein = experiment: Western blot of Mcl-1 protein expression in SKOV3 cells; assay type: cell-based, human; conditions: FIG. 11B
Method: (§1) The siRNA duplexes were transfected according to the recommended procedure by using the Oligofectamine Reagent and Opti-MEM medium (INVITROGEN LIFE TECHNOLOGIES). 30-40% confluent cells were transfected in 25 cm^2 flasks with different concentrations of siXL1, siRNA Mcl-1 or siRNA control and incubated at 37° C., 5% CO2 for 4 hours. Next, 20% fetal bovin serum was added to reach a final concentration of 10% foetal bovin serum in the 25 cm^2 flask.
Cells were rinsed with ice cold PBS and lysed in 150 mM NaCl, 50 mM Tris-HCl pH 8, 1% Triton X100, 4 mM PMSF, 2 mM Aprotinin, 5 mM EDTA, 10 mM NaF, 10 mM NaPPi, 1 mM Na3VO4 for 30 min on ice. Lysates were clarified by centrifugation at 10000 g for 10 min at 4° C. and protein concentrations were determined using the Bradford assay (BIO-RAD). Equal amounts of total cellular protein (20 μg) were resolved in a Bis-tris-HCL buffered (pH 6.4) 4-12% polyacrylamide gel (NuPAGE® Novex® 4-12% Bis-tris gel, INVITROGEN) for 35 min at 200V and electrophoretically transferred on a PVDF membrane (MILLIPORE) for 75 min at 30V. The membrane was blocked for 1 hour at room temperature in T-TBS (132 mM NaCl, 20 mM Tris-HCl pH 7.6, 0.05% Tween 20) supplemented with 5% non-fat dry milk. […] After 3 washes with T-TBS and one with TBS, the immunoreactivity was detected by enhanced chemiluminescence (ECL kit, AMERSHAM).

Bcl-XL mRNA = experiment: RT-PCR of Bcl-XL mRNA in SKOV3 cells after siRNA transfection; assay type: cell-based, human; conditions: 72 h after transfection, FIG. 1A
Method: as §1
One μg of total RNA, extracted by RNAeasy kit (QIAGEN), was reverse-transcripted with 200 units Omniscript reverse transcriptase (QIAGEN) in first strand reaction conditions recommended by the manufacturer. The targeted cDNA were amplified using the following pair of primers, Bcl-XL/S forward 5′-[…]-3′ (SEQ ID NO: 11) and Bcl-XL/S reverse 5′-gtagagtggatggtcagtg-3′ (SEQ ID NO:12; Bargou et al., Int. J. Cancer, 1995, 16, 854-859), and amplified under the following cycling conditions: pre-incubation 94° C. for 5 min then 94° C. for 40 sec, 58° C. for 60 sec and 72° C. for 40 sec for 30 cycles, post-incubation 72° C. for 3 min within a Mastercycleur Gradient (EPPENDORF). The use of these primers allows the migration of Bcl-Xs and Bcl-XL PCR products as two distinct bands of respectively 576 and 765 bp.

What does the source list for “siXL1: double-stranded siRNA blocking Bcl-XL expression; sense 5′-auuggugagucggaucgcatt-3′ (SEQ ID NO: 5), anti-sense 5′-ugcgauccgacucaccaautt-3′ (SEQ ID NO: 6) (sense AUUGGUGAGUCGGAUCGCATT; antisense UGCGAUCCGACUCACCAAUTT; chemistry not given here)”?
mice that die in the same interval as the control mice ([1]; group treated with siXL1): 50%; mice with no residual tumors at autopsy after 150 days ([1]; group treated with siXL1): 50%; duration of complete regression of the pre-established tumor after tumor cells implantation ([1]; low dose, mice implanted with human chemoresistant tumor cells): at least 5 months; survival at 130 days ([1]; naked siRNA 25 μg/kg intraperitoneal, 2 injections at 28 days interval, FIG. 15): 60%; effect on mice survival ([1]; siRNA 25 μg/kg, cisplatin 4 μg/kg intraperitoneal, treatment repeated one month later, FIG. 15): increases considerably; dose dependence of extinction of Mcl-1 protein expression (Mcl-1 protein): dose-dependent; Bcl-XL mRNA level (RT-PCR) (Bcl-XL mRNA): greatly reduces

— patent US8193333B2, “Cancer therapy using Bcl-Xl-specific siNA” (Centre Regional de Lutte Contre le Cancer-Centre Francois …, priority 2006, dated 2012)
